Like-named read-outs stand apart in the source and are kept apart here.

Common to all, as to experiment: 1H, […]-HSQC NMR chemical shift perturbation; TINS primary screen (T/R […])
Assay type in all cases: binding

Experiment [1] deals with T1, FtsQ (Escherichia coli, UniProt P06136).
T1 construct: soluble periplasmic domain (FtsQp), 15N-labeled, N-terminal tags cleaved by TEV

Experiment [2] concerns the target T1, FtsQ. The source holds these as a separate data set.
The target in experiment [3] is T1, FtsQ. The source holds these as a separate data set.

T1 sequence (P06136 50-276): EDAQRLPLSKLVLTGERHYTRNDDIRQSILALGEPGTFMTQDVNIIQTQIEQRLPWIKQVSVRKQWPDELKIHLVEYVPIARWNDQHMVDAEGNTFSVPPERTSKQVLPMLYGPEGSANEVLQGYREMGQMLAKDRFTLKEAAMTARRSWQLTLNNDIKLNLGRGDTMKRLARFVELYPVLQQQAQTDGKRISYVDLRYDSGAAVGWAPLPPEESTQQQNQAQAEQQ

As to `N[C@@H](Cc1cn(Cc2ccccc2)cn1)C(=O)O` [compound 1], the Kd in experiment [1] is more than 1 mM.
On to `C=C1[C@H](O)C[C@@H]2C[C@H]1C2(C)C` [compound 2], for which, in experiment [2], the Kd was more than 1 mM.
`CN(C)c1nc(=O)n(C2CCCCC2)c(=O)n1C` [compound 3]: in experiment [3], the Kd is more than 1 mM.

The Kd is the equilibrium constant for the complex coming apart.

The values above are taken from PMC6695665, “Interrogating the Essential Bacterial Cell Division Protein FtsQ with Fragments Using Target Immobilized NMR Screening (TINS)” (International Journal of Molecular Sciences, 2019).
